Laboratory results as given in patent US12084472B2 (Ardelyx, Inc., priority 2015, dated 2024).

Target: T1, human TGR5 (Homo sapiens, UniProt Q8TDU6)
T1 construct: expressed in transfected cells; host or cells: HEK293
T1 sequence (Q8TDU6 1-330): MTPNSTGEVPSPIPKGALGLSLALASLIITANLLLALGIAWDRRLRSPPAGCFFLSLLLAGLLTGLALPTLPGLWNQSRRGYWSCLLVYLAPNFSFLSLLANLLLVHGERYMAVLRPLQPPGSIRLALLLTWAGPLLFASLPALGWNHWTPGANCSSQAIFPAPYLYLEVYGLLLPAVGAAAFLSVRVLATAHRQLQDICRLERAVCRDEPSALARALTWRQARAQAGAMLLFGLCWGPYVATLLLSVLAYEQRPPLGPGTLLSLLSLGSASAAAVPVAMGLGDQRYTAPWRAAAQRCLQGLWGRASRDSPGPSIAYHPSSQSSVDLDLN
Assay: Cell-based TGR5 assay (cAMP generation, HTRF)
Conditions: HEK293 cells stably transfected with human TGR5; cAMP by HTRF; 30 minutes at 37° C.; read-out: pEC50 Human TGR5 (converted)
Method in brief: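 First, compounds in 3-fold serial dilution were placed in HBSS with 10 mM HEPES pH 7.4 and 0.5 mM IBMX. Next, human TGR5-expressing HEK293 cells were added and incubated 30 min at 37° C. Finally, cAMP was detected by HTRF and pEC50 derived by logistic fitting.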

Row | EC50 [nM] | Compound
1 | < 100 | CC(CCCC(=O)NC[C@H](O)[C@@H](O)[C@H](O)[C@H](O)CO)c1cc(Cl)c(COC2(c3cnccc3-c3ccccc3OC3CC3)CC2)cc1Cl (stereo partly drawn) [Compound I-161, 5-[2,5-dichloro-4-({1-[4-(2-cyclopropoxyphenyl)pyridin-3-yl]cyclopropoxy}methyl)phenyl]-N-[(2S,3R,4R,5R)-2,3,4,5,6-pentahydroxyhexyl]hexanamide]
2 | < 100 | O=C([C@@H](O)[C@@H](O)[C@H](O)[C@@H](O)CO)N(CCCCc1cc(Cl)c(COC2(c3cnccc3-c3ccccc3OC3CC3)CC2)cc1Cl)CC1CC1 [Compound I-211, (2S,3S,4R,5S)-N-(cyclopropylmethyl)-N-{4-[2,5-dichloro-4-({1-[4-(2-cyclopropoxyphenyl)pyridin-3-yl]cyclopropoxy}methyl)phenyl]butyl}-2,3,4,5,6-pentahydroxyhexanamide]
3 | < 100 | CN(C[C@H](O)[C@@H](O)[C@H](O)[C@H](O)CO)C(=O)CCCSc1ccc(Cl)c(COC2(c3cnccc3-c3ccccc3OC3CC3)CC2)c1 [Compound I-648, 4-{[4-chloro-3-({1-[4-(2-cyclopropoxyphenyl)pyridin-3-yl]cyclopropoxy}methyl)phenyl]sulfanyl}-N-methyl-N-[(2S,3R,4R,5R)-2,3,4,5,6-pentahydroxyhexyl]butanamide]
4 | 126 to 1000 | CN(C[C@H](O)[C@@H](O)[C@H](O)[C@H](O)CO)C(=O)NCCCCc1cc(Cl)c(CNC2(c3cnccc3-c3ccccc3OC3COC3)CC2)cc1Cl [Compound I-175, 1-[4-(2,5-dichloro-4-{[(1-{4-[2-(oxetan-3-yloxy)phenyl]pyridin-3-yl}cyclopropyl)amino]methyl}phenyl)butyl]-3-methyl-3-[(2S,3R,4R,5R)-2,3,4,5,6-pentahydroxyhexyl]urea]
5 | < 100 | O=C(NCCOCCSc1ccc(Cl)c(CNC2(c3cnccc3-c3ccccc3OC3CC3)CC2)c1)NC[C@H](O)[C@@H](O)[C@H](O)[C@H](O)CO [Compound I-626, 1-{2-[2-({4-chloro-3-[({1-[4-(2-cyclopropoxyphenyl)pyridin-3-yl]cyclopropyl}amino)methyl]phenyl}sulfanyl)ethoxy]ethyl}-3-[(2S,3R,4R,5R)-2,3,4,5,6-pentahydroxyhexyl]urea]
6 | 126 to 1000 | CCNC(=O)[C@@H](CCCCNS(=O)(=O)c1ccc(Cl)c(COC2(c3cnccc3-c3ccccc3OC3CC3)CC2)c1)NC(=O)NC[C@H](O)[C@@H](O)[C@H](O)[C@H](O)CO [Compound I-482, (2R)-6-[4-chloro-3-({1-[4-(2-cyclopropoxyphenyl)pyridin-3-yl]cyclopropoxy}methyl)benzenesulfonamido]-N-ethyl-2-({[(2S,3R,4R,5R)-2,3,4,5,6-pentahydroxyhexyl]carbamoyl}amino)hexanamide]
7 | 126 to 1000 | O=C(CCCSc1ccc(Cl)c(COC2(c3cnccc3-c3ccccc3OC3CC3)CC2)c1)N(CCOCCO)C[C@H](O)[C@@H](O)[C@H](O)[C@H](O)CO [Compound I-683, 4-{[4-chloro-3-({1-[4-(2-cyclopropoxyphenyl)pyridin-3-yl]cyclopropoxy}methyl)phenyl]sulfanyl}-N-[2-(2-hydroxyethoxy)ethyl]-N-[(2S,3R,4R,5R)-2,3,4,5,6-pentahydroxyhexyl]butanamide]
8 | < 100 | O=C(NCC1CCN(S(=O)(=O)c2ccc(Cl)c(COC3(c4cnccc4-c4ccccc4OC4CC4)CC3)c2)C1)NC[C@H](O)[C@@H](O)[C@H](O)[C@H](O)CO (stereo partly drawn) [Compound I-420, 1-({1-[4-chloro-3-({1-[4-(2-cyclopropoxyphenyl)pyridin-3-yl]cyclopropoxy}methyl)benzenesulfonyl]pyrrolidin-3-yl}methyl)-3-[(2S,3R,4R,5R)-2,3,4,5,6-pentahydroxyhexyl]urea]
9 | < 100 | CC(C)CN(CCCCNC(=O)NC[C@H](O)[C@@H](O)[C@H](O)[C@H](O)CO)S(=O)(=O)c1ccc(Cl)c(COC2(c3cnccc3-c3ccccc3OC3CC3)CC2)c1 [Compound I-762, 4-chloro-3-((1-(4-(2-cyclopropoxyphenyl)pyridin-3-yl)cyclopropoxy)methyl)-N-isobutyl-N-(4-(3-((2S,3R,4R,5R)-2,3,4,5,6-pentahydroxyhexyl)ureido)butyl)benzenesulfonamide]
10 | < 100 | CC(CCCC(=O)NCCN1CCN(C(=O)NC[C@H](O)[C@@H](O)[C@H](O)[C@H](O)CO)CC1)c1ccc(Cl)c(CNC2(c3cnccc3-c3ccccc3OC3CC3)CC2)c1 (stereo partly drawn) [Compound I-322, 4-[2-(5-{4-chloro-3-[({1-[4-(2-cyclopropoxyphenyl)pyridin-3-yl]cyclopropyl}amino)methyl]phenyl}hexanamido)ethyl]-N-[(2S,3R,4R,5R)-2,3,4,5,6-pentahydroxyhexyl]piperazine-1-carboxamide]
11 | < 100 | O=C(NCCCCSc1ccc(Cl)c(COC2(c3cnccc3-c3ccccc3OC3CC3)CC2)c1)N[C@H]1CC[C@H](NC(=O)NC[C@H](O)[C@@H](O)[C@H](O)[C@H](O)CO)CC1 [Compound I-632, 1-(4-{[4-chloro-3-({1-[4-(2-cyclopropoxyphenyl)pyridin-3-yl]cyclopropoxy}methyl)phenyl]sulfanyl}butyl)-3-[(1r,4r)-4-({[(2S,3R,4R,5R)-2,3,4,5,6-pentahydroxyhexyl]carbamoyl}amino)cyclohexyl]urea]
12 | 126 to 1000 | O=C([C@@H](O)[C@@H](O)[C@H](O)[C@@H](O)CO)N(CCCCSc1ccc(Cl)c(COC2(c3cnccc3-c3ccccc3OC3CC3)CC2)c1)CCN1CCS(=O)(=O)CC1 [Compound I-524, (2S,3S,4R,5S)-N-(4-{[4-chloro-3-({1-[4-(2-cyclopropoxyphenyl)pyridin-3-yl]cyclopropoxy}methyl)phenyl]sulfanyl}butyl)-N-[2-(1,1-dioxo-1λ^6,4-thiomorpholin-4-yl)ethyl]-2,3,4,5,6-pentahydroxyhexanamide]
13 | < 100 | CC(C)N(CCCCNC(=O)N[C@@H](CO)[C@@H](O)[C@H](O)[C@H](O)CO)S(=O)(=O)c1ccc(Cl)c(COC2(c3cnccc3-c3ccccc3OC3CC3)CCOC2)c1 (stereo partly drawn) [Compound I-749, 4-chloro-3-(((3-(4-(2-cyclopropoxyphenyl)pyridin-3-yl)tetrahydrofuran-3-yl)oxy)methyl)-N-isopropyl-N-(4-(3-((2S,3R,4S,5R)-1,3,4,5,6-pentahydroxyhexan-2-yl)ureido)butyl)benzenesulfonamide]
14 | < 100 | O=C1CCCN1CCCN(CCCCSc1ccc(Cl)c(COC2(c3cnccc3-c3ccccc3OC3CC3)CC2)c1)C(=O)[C@@H](O)[C@@H](O)[C@H](O)[C@@H](O)CO [Compound I-515, (2S,3S,4R,5S)-N-(4-{[4-chloro-3-({1-[4-(2-cyclopropoxyphenyl)pyridin-3-yl]cyclopropoxy}methyl)phenyl]sulfanyl}butyl)-2,3,4,5,6-pentahydroxy-N-[3-(2-oxopyrrolidin-1-yl)propyl]hexanamide]
15 | < 100 | CN(C[C@H](O)[C@@H](O)[C@H](O)[C@H](O)CO)C(=O)CCSc1ccc(Cl)c(CNC2(c3cnccc3-c3ccccc3OC3CC3)CC2)c1 [Compound I-676, 3-({4-chloro-3-[({1-[4-(2-cyclopropoxyphenyl)pyridin-3-yl]cyclopropyl}amino)methyl]phenyl}sulfanyl)-N-methyl-N-[(2S,3R,4R,5R)-2,3,4,5,6-pentahydroxyhexyl]propanamide]
16 | < 100 | CS(=O)(=O)NCCCCN(CCCSc1ccc(Cl)c(CNC2(c3cnccc3-c3ccccc3OC3CC3)CC2)c1)C(=O)[C@@H](O)[C@@H](O)[C@H](O)[C@@H](O)CO [Compound I-599, (2S,3S,4R,5S)-N-[3-({4-chloro-3-[({1-[4-(2-cyclopropoxyphenyl)pyridin-3-yl]cyclopropyl}amino)methyl]phenyl}sulfanyl)propyl]-2,3,4,5,6-pentahydroxy-N-(4-methanesulfonamidobutyl) hexanamide]
17 | 126 to 1000 | FC(F)(F)COc1ccccc1-c1ccncc1C1(NCc2cc(Cl)ccc2Cl)CC1 [Compound I-8, N-[(2,5-dichlorophenyl)methyl]-1-{4-[2-(2,2,2-trifluoroethoxy)phenyl]pyridin-3-yl}cyclopropan-1-amine]
18 | 126 to 1000 | CS(=O)(=O)CCN(CCCSc1ccc(Cl)c(CNC2(c3cnccc3-c3ccccc3OC3CC3)CC2)c1)C(=O)[C@@H](O)[C@@H](O)[C@H](O)[C@@H](O)CO [Compound I-583, (2S,3S,4R,5S)-N-[3-({4-chloro-3-[({1-[4-(2-cyclopropoxyphenyl)pyridin-3-yl]cyclopropyl}amino)methyl]phenyl}sulfanyl)propyl]-2,3,4,5,6-pentahydroxy-N-(2-methanesulfonylethyl) hexanamide]
19 | 126 to 1000 | Cc1ccc(CCCCNC(=O)NC[C@H](O)[C@@H](O)[C@H](O)[C@H](O)CO)cc1COC1(c2cnccc2-c2ccccc2OC2CC2)CC1 [Compound I-239, 1-{4-[3-({1-[4-(2-cyclopropoxyphenyl)pyridin-3-yl]cyclopropoxy}methyl)-4-methylphenyl]butyl}-3-[(2S,3R,4R,5R)-2,3,4,5,6-pentahydroxyhexyl]urea]

Row | Compound | EC50 [nM]
20 | CC(C)N(CCCCNC(=O)N[C@@H](CO)[C@@H](O)[C@H](O)[C@H](O)CO)S(=O)(=O)c1ccc(Cl)c(COC2(c3cnccc3-c3ccccc3OC3CC3)CCC2)c1 [Compound I-746, 4-chloro-3-((1-(4-(2-cyclopropoxyphenyl)pyridin-3-yl)cyclobutoxy)methyl)-N-isopropyl-N-(4-(3-((2S,3R,4S,5R)-1,3,4,5,6-pentahydroxyhexan-2-yl)ureido)butyl)benzenesulfonamide] | < 100
